In ChEMBL document CHEMBL1140239, “Novel phomactin analogues as PAF receptor ligands” (Bioorg Med Chem Lett, 2005):

Target: Platelet-activating factor receptor (Homo sapiens, UniProt P25105)
Assay: Inhibition of [3H]PAF binding to platelet activating factor receptor in human platelet

Sequence of Platelet-activating factor receptor (P25105 whole entry): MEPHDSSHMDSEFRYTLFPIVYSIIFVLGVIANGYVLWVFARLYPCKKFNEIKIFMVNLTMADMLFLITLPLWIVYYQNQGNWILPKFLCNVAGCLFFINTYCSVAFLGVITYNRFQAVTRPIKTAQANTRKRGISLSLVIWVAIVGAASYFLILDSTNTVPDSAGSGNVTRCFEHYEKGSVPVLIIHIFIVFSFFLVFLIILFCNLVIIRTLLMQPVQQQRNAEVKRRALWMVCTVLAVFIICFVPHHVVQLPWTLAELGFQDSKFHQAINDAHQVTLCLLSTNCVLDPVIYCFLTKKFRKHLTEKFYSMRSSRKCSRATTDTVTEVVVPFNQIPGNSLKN

Row | Compound | IC50 [nM]
1 | C/C1=C\CC[C@]2(C)O[C@H]2[C@@]2(O)OCC3=C2CC[C@@H](C)[C@]3(C)CC1 | 575
2 | C/C1=C\CC[C@]2(C)O[C@@H]3C[C@@H](C)[C@](C)(CC1)[C@]14CO[C@](O)([C@H]2O)[C@]31O4 | 2340
3 | C/C1=C\CC[C@@]2(C)O[C@@H]2[C@@]2(O)OCC3=C2[C@@H](O)C[C@@H](C)[C@]3(C)CC1 | 1450
4 | C/C1=C\CC[C@]2(C)O[C@H]2[C@@]2(O)OCC3=C2[C@H](O)C[C@@H](C)[C@]3(C)CC1 | 1120
5 | C/C1=C\CC[C@@]2(C)O[C@@H]2[C@@]2(O)OCC3=C2CC[C@@H](C)[C@]3(C)CC1 | 575
6 | C/C1=C\[C@@]2(O)OC[C@]34O[C@]23CC[C@@H](C)C4(C)CC/C(C)=C/CC1 (single isomer, unassigned) | 1150
7 | C/C1=C\CC[C@]2(C)O[C@@H]3C[C@@H](C)C(C)(CC1)C1=C3[C@](O)(OC1)[C@H]2O (single isomer, unassigned) | 1260
